Test results published in ChEMBL document CHEMBL1649203, “Pharmacokinetics and safety of famciclovir in children with herpes simplex or varicella-zoster virus infection” (Antimicrob Agents Chemother, 2009).

Columns and labels:
Homo sapiens [1] = experiment: AUC (0 to last) in healthy human at 500 mg, po administered as single dose; format: ADME, organism-based, Plasma; parameters: dose 500 mg, time 0 - last, route oral; conditions: in vivo
Homo sapiens [2] = experiment: AUC (0 to infinity) in healthy human at 500 mg, po administered as single dose; format: ADME, organism-based, Plasma; parameters: dose 500 mg, route oral, time infinity; conditions: in vivo

AUC (Homo sapiens [1]): 8.54 ug/hr.ml
AUC (Homo sapiens [2]): 8.94 ug/hr.ml
SMILES: CC(=O)OCC(CCn1cnc2cnc(N)nc21)COC(C)=O [FAMCICLOVIR]
